Measurements published in ChEMBL document CHEMBL1139284, “Synthesis and evaluation of novel photoreactive alpha-amino acid analog carrying acidic and cleavable functions” (Bioorg Med Chem Lett, 2009).
Activity calls are given as the source filed them. The rule behind the calls is not given here.

How the values were obtained:
[1] = molecular target: Glutamyl endopeptidase (Staphylococcus aureus) (UniProt P0C1U8); assay: Binding affinity to Staphylococcus aureus V8 glutamyl endopeptidase after 40 mins of UV irradiation by photoaffinity labeling assay
[2] = molecular target: Glutamyl endopeptidase (Staphylococcus aureus, UniProt P0C1U8); assay: Binding affinity to Staphylococcus aureus V8 glutamyl endopeptidase; details: read-out: Ki(app)

| Activity [1] | Ki [2] [µM] | Structure (SMILES) |
| --- | --- | --- |
| Active | – | CC(C)(C)OC(=O)N[C@@H](CCC(=O)O)C(N)=O |
| inactive | – | CC(C)(C)OC(=O)N[C@@H](CCC(=O)OCc1ccccc1)C(N)=O |
| Active | – | CC(C)(C)OC(=O)N[C@@H](CS(=O)(=O)NC(=O)c1ccccc1)C(N)=O |
| – | 162 | CC(C)(C)OC(=O)N[C@@H](CS(=O)(=O)NC(=O)c1ccc(C2(C(F)(F)F)N=N2)cc1)C(=O)NCCOCCOCCNC(=O)CCCC[C@@H]1SCC2NC(=O)NC21 (some centres undefined) |
